Assay results published in ChEMBL document CHEMBL5316328, “Discovery of AXL Degraders with Improved Potencies in Triple-Negative Breast Cancer (TNBC) Cells” (J Med Chem, 2023).
Active and inactive are the calls of the source. The rule behind the calls is not given here.

How the values were obtained:
[1] = target: T1, Protein cereblon/Tyrosine-protein kinase receptor UFO (Homo sapiens, UniProt P30530+Q96SW2); experiment: PROTAC activity at CRBN/AXL in human MDA-MB-231 cells assessed as induction of AXL degradation by measuring maximal efficacy at 0.08 uM incubated for 24 hrs by Western blot analysis relative to control; type: cell-based
T1 sequence (P30530 26-894 limits assumed): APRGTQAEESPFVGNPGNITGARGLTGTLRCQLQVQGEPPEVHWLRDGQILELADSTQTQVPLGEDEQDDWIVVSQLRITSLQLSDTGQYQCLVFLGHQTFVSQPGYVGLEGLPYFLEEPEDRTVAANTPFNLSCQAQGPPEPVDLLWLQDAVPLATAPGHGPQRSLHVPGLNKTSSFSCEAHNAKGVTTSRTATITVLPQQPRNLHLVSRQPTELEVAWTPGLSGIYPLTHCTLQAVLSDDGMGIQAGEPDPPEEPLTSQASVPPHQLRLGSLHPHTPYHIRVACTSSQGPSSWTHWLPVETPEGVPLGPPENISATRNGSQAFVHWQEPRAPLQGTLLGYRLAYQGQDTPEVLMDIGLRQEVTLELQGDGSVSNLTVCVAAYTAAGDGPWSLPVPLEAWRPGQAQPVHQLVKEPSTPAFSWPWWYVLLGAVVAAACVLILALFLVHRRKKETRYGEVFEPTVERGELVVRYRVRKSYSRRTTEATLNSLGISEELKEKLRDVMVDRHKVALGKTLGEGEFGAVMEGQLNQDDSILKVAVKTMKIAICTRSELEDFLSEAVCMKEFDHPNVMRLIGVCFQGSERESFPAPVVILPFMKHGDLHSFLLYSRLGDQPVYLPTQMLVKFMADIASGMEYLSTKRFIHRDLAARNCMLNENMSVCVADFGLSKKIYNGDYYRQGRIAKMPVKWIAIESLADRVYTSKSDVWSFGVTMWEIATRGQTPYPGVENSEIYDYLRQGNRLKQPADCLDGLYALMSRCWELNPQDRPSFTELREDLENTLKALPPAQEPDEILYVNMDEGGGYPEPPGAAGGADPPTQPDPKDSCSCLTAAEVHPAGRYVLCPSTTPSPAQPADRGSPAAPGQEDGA
T1 sequence (Q96SW2 whole entry partner): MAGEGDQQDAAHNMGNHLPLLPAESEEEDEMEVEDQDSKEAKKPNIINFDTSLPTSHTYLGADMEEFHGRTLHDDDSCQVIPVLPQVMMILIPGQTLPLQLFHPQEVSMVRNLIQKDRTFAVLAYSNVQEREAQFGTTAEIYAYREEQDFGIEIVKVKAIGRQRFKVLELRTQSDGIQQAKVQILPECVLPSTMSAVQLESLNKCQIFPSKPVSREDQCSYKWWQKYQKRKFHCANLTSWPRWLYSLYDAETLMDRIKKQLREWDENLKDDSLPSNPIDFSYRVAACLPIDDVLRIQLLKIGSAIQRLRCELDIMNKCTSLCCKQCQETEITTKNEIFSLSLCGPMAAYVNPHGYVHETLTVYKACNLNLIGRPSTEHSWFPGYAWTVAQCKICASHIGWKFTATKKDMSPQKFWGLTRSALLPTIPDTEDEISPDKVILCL

[2] = target: T1, Protein cereblon/Tyrosine-protein kinase receptor UFO; experiment: PROTAC activity at CRBN/AXL in human MDA-MB-231 cells assessed as induction of AXL degradation at 40 nM incubated for 18 to 24 hrs by Western blot analysis; type: cell-based; settings: time 18-24 hrs
[3] = target: Zinc finger protein Aiolos (Homo sapiens) (UniProt Q9UKT9); experiment: Induction of IKZF3 degradation in human MDA-MB-231 cells at 10 uM incubated for 24 hrs by Western blot analysis; type: cell-based
Zinc finger protein Aiolos (Homo sapiens), sequence (Q9UKT9 whole entry, canonical isoform): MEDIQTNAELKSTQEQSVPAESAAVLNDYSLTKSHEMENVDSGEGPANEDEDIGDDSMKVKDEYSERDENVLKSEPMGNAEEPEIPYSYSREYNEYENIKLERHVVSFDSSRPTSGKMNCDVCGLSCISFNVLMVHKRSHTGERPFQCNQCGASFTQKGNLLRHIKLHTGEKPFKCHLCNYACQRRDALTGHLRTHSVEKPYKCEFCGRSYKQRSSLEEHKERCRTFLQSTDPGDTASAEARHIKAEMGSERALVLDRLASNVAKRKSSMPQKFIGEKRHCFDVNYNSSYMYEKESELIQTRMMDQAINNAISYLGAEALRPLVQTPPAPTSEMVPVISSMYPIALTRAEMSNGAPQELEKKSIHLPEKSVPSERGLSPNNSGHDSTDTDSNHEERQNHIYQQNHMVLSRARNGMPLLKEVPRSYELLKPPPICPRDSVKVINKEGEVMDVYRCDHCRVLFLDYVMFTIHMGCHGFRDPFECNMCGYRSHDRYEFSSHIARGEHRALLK

[4] = target: Casein kinase I isoform alpha (Homo sapiens) (UniProt P48729); experiment: Induction of CK1alpha degradation in human MDA-MB-231 cells at 10 uM incubated for 24 hrs by Western blot analysis; type: cell-based
Casein kinase I isoform alpha (Homo sapiens), sequence (P48729 2-337 limits assumed): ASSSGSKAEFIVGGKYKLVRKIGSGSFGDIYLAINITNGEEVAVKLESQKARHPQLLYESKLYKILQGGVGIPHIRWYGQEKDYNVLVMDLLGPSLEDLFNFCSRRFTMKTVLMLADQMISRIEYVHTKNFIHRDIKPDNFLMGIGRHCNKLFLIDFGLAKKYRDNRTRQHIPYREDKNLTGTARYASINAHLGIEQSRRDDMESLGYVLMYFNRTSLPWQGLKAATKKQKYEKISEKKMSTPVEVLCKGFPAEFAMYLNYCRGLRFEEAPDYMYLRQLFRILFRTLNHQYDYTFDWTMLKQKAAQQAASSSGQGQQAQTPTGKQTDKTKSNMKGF

[5] = target: T1, Protein cereblon/Tyrosine-protein kinase receptor UFO; experiment: PROTAC activity at CRBN/AXL in human MDA-MB-231 cells assessed as induction of AXL degradation at 40 nM preincubated with MG-132 for 2 hrs followed by compound treatment and measured after 24 hrs by Western blot analysis; type: cell-based
[6] = target: T1, Protein cereblon/Tyrosine-protein kinase receptor UFO; experiment: PROTAC activity at CRBN/AXL in human MDA-MB-436 cells expressing AXL assessed as induction of AXL degradation at 1.6 to 1000 nM incubated for 24 hrs by Western blot analysis; type: cell-based; settings: dose 1.6-1000 nM
[7] = target: T1, Protein cereblon/Tyrosine-protein kinase receptor UFO; experiment: PROTAC activity at CRBN/AXL in human MDA-MB-231 cells expressing AXL assessed as induction of AXL degradation at 0.016 to 10 nM incubated for 24 hrs by Western blot analysis; type: cell-based; settings: dose 0.016-10 nM
MDA-MB-453 = experiment: Antiproliferative activity against human MDA-MB-453 cells assessed as inhibition of cell growth incubated for 72 hrs by CCK8 assay; type: functional, cell-based; settings: MDA-MB-453, 72 h
MDA-MB-231 [8] = experiment: Antiproliferative activity against human MDA-MB-231 cells assessed as reduction in cell viability preincubated with N-(4-((6,7-dimethoxyquinazolin-4-yl)oxy)-3-fluorophenyl)-6-ethyl-1,2-dimethyl-4-oxo-1,4-dihydroquinoline-3-carboxamide for 6 hrs followed by compound treatment and measured after 24 hrs by CCK8 assay; type: functional, cell-based
[9] = target: ALK tyrosine kinase receptor (Homo sapiens, UniProt Q9UM73); experiment: Inhibition of ALK (unknown origin)
ALK tyrosine kinase receptor, sequence (Q9UM73 whole entry): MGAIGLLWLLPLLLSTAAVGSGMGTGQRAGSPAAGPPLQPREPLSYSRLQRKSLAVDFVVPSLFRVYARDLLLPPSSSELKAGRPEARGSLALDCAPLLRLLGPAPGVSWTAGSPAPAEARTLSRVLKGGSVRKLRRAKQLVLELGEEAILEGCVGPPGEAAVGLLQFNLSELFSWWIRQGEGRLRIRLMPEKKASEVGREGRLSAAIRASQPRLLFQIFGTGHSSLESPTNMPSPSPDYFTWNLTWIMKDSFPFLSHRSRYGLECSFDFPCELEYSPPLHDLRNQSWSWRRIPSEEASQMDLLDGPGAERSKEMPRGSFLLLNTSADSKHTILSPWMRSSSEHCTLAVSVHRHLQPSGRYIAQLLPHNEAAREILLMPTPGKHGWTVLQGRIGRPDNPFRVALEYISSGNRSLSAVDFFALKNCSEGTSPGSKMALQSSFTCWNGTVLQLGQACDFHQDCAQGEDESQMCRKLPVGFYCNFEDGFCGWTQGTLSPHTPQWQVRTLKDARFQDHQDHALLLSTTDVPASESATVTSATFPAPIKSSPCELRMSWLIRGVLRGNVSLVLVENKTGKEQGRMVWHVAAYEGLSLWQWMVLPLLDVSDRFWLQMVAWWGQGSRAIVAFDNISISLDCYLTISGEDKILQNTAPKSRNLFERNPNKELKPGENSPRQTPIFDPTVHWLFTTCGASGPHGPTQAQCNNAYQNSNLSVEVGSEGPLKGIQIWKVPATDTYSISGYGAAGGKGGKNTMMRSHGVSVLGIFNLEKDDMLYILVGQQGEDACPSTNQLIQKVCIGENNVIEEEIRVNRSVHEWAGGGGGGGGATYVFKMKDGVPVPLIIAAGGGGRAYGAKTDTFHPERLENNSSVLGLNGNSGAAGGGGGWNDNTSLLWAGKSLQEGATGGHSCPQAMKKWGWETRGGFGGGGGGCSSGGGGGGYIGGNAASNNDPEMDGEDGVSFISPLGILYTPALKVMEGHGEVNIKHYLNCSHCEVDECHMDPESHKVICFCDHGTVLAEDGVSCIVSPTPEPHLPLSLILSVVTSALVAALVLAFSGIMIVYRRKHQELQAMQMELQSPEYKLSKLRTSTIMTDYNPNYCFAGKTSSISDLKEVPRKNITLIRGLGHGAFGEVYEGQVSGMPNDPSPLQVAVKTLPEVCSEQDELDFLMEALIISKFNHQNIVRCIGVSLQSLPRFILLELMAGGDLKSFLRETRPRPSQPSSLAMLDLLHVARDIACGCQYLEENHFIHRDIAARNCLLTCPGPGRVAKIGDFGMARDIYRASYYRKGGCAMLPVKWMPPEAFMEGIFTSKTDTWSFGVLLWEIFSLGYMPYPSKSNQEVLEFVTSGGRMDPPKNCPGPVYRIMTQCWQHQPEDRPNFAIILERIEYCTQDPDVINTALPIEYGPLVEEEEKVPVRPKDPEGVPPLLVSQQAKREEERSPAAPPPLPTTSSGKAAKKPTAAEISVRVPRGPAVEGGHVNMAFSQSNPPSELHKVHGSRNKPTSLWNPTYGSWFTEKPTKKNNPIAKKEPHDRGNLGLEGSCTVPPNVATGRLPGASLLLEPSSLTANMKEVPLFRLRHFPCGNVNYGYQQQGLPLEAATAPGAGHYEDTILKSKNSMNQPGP

MDA-MB-231 [10] = experiment: Induction of cell cycle arrest in human MDA-MB-231 cells assessed as G0/G1 phase cells at 33.3 nM incubated for 24 hrs by PI staining based flow cytometric analysis (reference value: 63.32 to 64.94%); type: functional
MDA-MB-231 [11] = experiment: Induction of cell cycle arrest in human MDA-MB-231 cells assessed as accumulation of cell at G2/M phase at 33.3 nM incubated for 24 hrs by PI staining based flow cytometric analysis (reference value: 24.34 to 24.44%); type: functional
MDA-MB-231 [12] = experiment: Induction of cell cycle arrest in human MDA-MB-231 cells assessed as S phase cells at 100 nM incubated for 24 hrs by PI staining based flow cytometric analysis (reference value: 9.64 to 10.79%); type: functional
MDA-MB-231 [13] = experiment: Induction of cell cycle arrest in human MDA-MB-231 cells assessed as accumulation of cell at G2/M phase at 100 nM incubated for 24 hrs by PI staining based flow cytometric analysis (reference value: 24.34 to 24.44%); type: functional
MDA-MB-231 [14] = experiment: Induction of cell cycle arrest in human MDA-MB-231 cells assessed as S phase cells at 300 nM incubated for 24 hrs by PI staining based flow cytometric analysis (reference value: 9.64 to 10.79%); type: functional
MDA-MB-231 [15] = experiment: Induction of apoptosis in human MDA-MB-231 cells assessed as viable cells at 33.3 nM incubated for 48 hrs by Annexin V-PE staining based flow cytometric analysis (reference value: 92.59 to 92.71%); type: functional; settings: read-out: Activity
MDA-MB-231 [16] = experiment: Induction of apoptosis in human MDA-MB-231 cells assessed as necrotic cells at 33.3 nM incubated for 48 hrs by Annexin V-PE staining based flow cytometric analysis (reference value: 2.64 to 3.23%); type: functional
MDA-MB-231 [17] = experiment: Induction of apoptosis in human MDA-MB-231 cells assessed as early apoptotic cells at 33.3 nM incubated for 48 hrs by Annexin V-PE staining based flow cytometric analysis (reference value: 3.95 to 3.74%); type: functional
MDA-MB-231 [18] = experiment: Induction of apoptosis in human MDA-MB-231 cells assessed as late apoptotic cells at 33.3 nM incubated for 48 hrs by Annexin V-PE staining based flow cytometric analysis (reference value: 0.32 to 0.82%); type: functional
MDA-MB-231 [19] = experiment: Induction of apoptosis in human MDA-MB-231 cells assessed as early apoptotic cells at 100 nM incubated for 48 hrs by Annexin V-PE staining based flow cytometric analysis (reference value: 3.95 to 3.74%); type: functional
MDA-MB-231 [20] = experiment: Induction of apoptosis in human MDA-MB-231 cells assessed as necrotic cells at 100 nM incubated for 48 hrs by Annexin V-PE staining based flow cytometric analysis (reference value: 2.64 to 3.23%); type: functional
MDA-MB-231 [21] = experiment: Induction of apoptosis in human MDA-MB-231 cells assessed as viable cells at 300 nM incubated for 48 hrs by Annexin V-PE staining based flow cytometric analysis (reference value: 92.59 to 92.71%); type: functional; settings: read-out: Activity
MDA-MB-231 [22] = experiment: Induction of apoptosis in human MDA-MB-231 cells assessed as late apoptotic cells at 300 nM incubated for 48 hrs by Annexin V-PE staining based flow cytometric analysis (reference value: 0.32 to 0.82%); type: functional
MDA-MB-231 [23] = experiment: Induction of cell cycle arrest in human MDA-MB-231 cells assessed as decrease in CDK2 level at 11.1 to 300 nM by Western blot analysis; type: functional, cell-based; settings: dose 11.1-300 nM
MDA-MB-231 [24] = experiment: Induction of cell cycle arrest in human MDA-MB-231 cells assessed as decrease in cyclin B1 level at 11.1 to 300 nM by Western blot analysis; type: functional, cell-based; settings: dose 11.1-300 nM
MDA-MB-231 [25] = experiment: Induction of apoptosis in human MDA-MB-231 cells assessed as upregulation of cleaved PARP expression by Western blot analysis; type: functional, cell-based; settings: dose 11.1-300 nM
MDA-MB-231 [26] = experiment: Inhibition of cell invasion in human MDA-MB-231 cells at 3.7 to 100 nM incubated for 18 hrs by transwell assay; type: functional, cell-based; settings: dose 3.7-100 nM
MDA-MB-231 [27] = experiment: Antitumor activity against human MDA-MB-231 cells xenografted in Balb/c nude mouse assessed as tumor growth inhibition at 20 mg/kg, ip administered for 22 days and measured 24 hrs post last dose relative to control; type: functional; settings: MDA-MB-231, 552 h, time 23 day, read-out: TGI
[28] = Toxicity in Balb/c nude mouse xenografted with human MDA-MB-231 cells assessed as effect on body weight at 10 to 20 mg/kg, ip administered for 22 days and measured 24 hrs post last dose; type: organism-based; settings: in vivo, 552 h, dose 10-20 mg/kg, time 23 day
Homo sapiens = species: Homo sapiens; experiment: Antitumor activity against patient-derived breast cancer organoid assessed as decrease in structure density at 5 uM incubated for 120 hrs by bright-field imaging microscopic analysis; type: functional, tissue-based
[29] = Antitumor activity against patient-derived breast cancer organoid assessed as reduction in cell viability incubated for 120 hrs by CellTiter-Glo 3D assay; type: functional, tissue-based; settings: Homo sapiens

CCc1ccc2c(c1)c(=O)c(C(=O)Nc1ccc(Oc3ncnc4cc(OCCCCCC(=O)Nc5ccc6c(c5)CN(C5CCC(=O)NC5=O)C6=O)c(OC)cc34)c(F)c1)c(C)n2C (stereo unspecified)
Emax [1]: 80.5%
Activity [2]: Active
Activity [3]: inactive
Activity [4]: inactive
Activity [5]: inactive
Activity [6]: Active
Activity [7]: Active
IC50 (MDA-MB-453): > 5000 nM
Activity (MDA-MB-231 [8]): inactive
IC50 [9]: 4.94 nM
Activity (MDA-MB-231 [10]): 63.32%
Activity (MDA-MB-231 [11]): 22.85%
Activity (MDA-MB-231 [12]): 15.78%
Activity (MDA-MB-231 [13]): 31.16%
Activity (MDA-MB-231 [14]): 16.29%
viability at 0.0333 µM (MDA-MB-231 [15]): 91.5%
Activity (MDA-MB-231 [16]): 1.2%
Activity (MDA-MB-231 [17]): 6.69%
Activity (MDA-MB-231 [18]): 0.56%
Activity (MDA-MB-231 [19]): 14.51%
Activity (MDA-MB-231 [20]): 1.17%
viability at 0.3 µM (MDA-MB-231 [21]): 74.1%
Activity (MDA-MB-231 [22]): 0.79%
Activity (MDA-MB-231 [23]): Active
Activity (MDA-MB-231 [24]): Active
Activity (MDA-MB-231 [25]): Dose-Dependent Effect
inhibition (MDA-MB-231 [26]): Active
inhibition in vivo at 20 mg/kg (MDA-MB-231 [27]): 62.5%
Activity [28]: Non-Toxic
Activity (Homo sapiens): Active
IC50 [29]: 20 nM
